Columns and labels:
NRK52E cells = experiment: Apoptosis induced by NO donor GSNO in NRK52E kidney cells; type: cell-based, rat
Experimental: 1) Apoptosis was induced by NO (nitrogen monoxide) in kidney cells. NRK52E cells, which are established from a rat renal tubule epithelial cell line, mainly derived from distal were cultured for 24 hours with a chamber slide that was coated with type-I collagen. Afterwards, the cultured medium was changed to a serum-free medium, and apoptosis was induced by addition of NOC12 (0.4 mM) or S-nitroso L-glutathione (GSNO: 1 mM), which are NO donors.
4) Inhibitory effect of PGE1 to the induction of apoptosis in kidney cells was investigated PGE1 was added simultaneously with the addition of a NO donor to a final concentration of 1 or 10 μM. After 24 hrs, cells were fixed with a 1% glutaraldehyde solution and stained with Hoechst 33342. Three visual fields were selected arbitrarily per slide, and the ratio of the cells count where nuclear fragmentation and condensation appeared was calculated with respect to the total cells in the field (magnification: 400x). The n was 5.
5) The relationship between PGT inhibitors and kidney cell apoptosis induced by GSNO was examined. With a final concentration of BrCG, which is a PGT inhibitor, of 60 μM, manners other than simultaneous addition with GSNO and PGE1 were in accordance with the aforementioned ones in 4). The PGE1 final concentration was 1 μM. The n was 3.
1) Drugs having suppressing activity on apoptosis inducted in kidney cells by an NO donor were investigated. PGK1 and bicyclo PGE2 were used as test drugs, but other manners were in accordance with Experiment 8. The final concentration of the test drugs was 1 μM. The n was 5.
2) It was investigated the effects of a PGT inhibitor on the apoptosis-suppressing activity of PGK1 and bicyclo PGE2 in kidney cells. With a final concentration of BrCG, which is a PGT inhibitor, of 60 μM, manners other than simultaneous addition of GSNO and test drugs were in accordance with the aforementioned methods in 1). The n was 4.

[1] = system: differentiated PC12 cells; experiment: Suppression of apoptosis in differentiated PC12 cells after NGF withdrawal, TUNEL staining; type: cell-based, rat; settings: for TUNEL-positive cells (%): NGF withdrawal
Experimental: (§1) (1) After growing rat adrenal pheochromocytoma PC12 cells (obtained by: ATCC; importer: Dainippon Pharmaceutical) with RPMI1640 containing 10 ml/l heat-inactivated horse serum and 5 ml/l heat-inactivated fetal calf serum, culturing was performed with RPMI1640 containing mouse β NGF (100 ng/ml), N2 supplement, and TIP (5 μg/ml transferrin, 5 μg/ml insulin, and 10 ng/ml progesterone). Differentiation to neuron-like cells was performed.
(§2) (2) Differentiated PC12 cells were washed with Neurobasal culture medium. After replacing the culture medium with RPMI1640 not containing β NGF, N2 supplement, and TIP, mouse β NGF antibodies (final concentration: 50 ng/ml) were added. By culturing for 24 hrs, apoptosis was induced.
(§3) 0.01-1 μM) to fresh culture medium during medium replacement and culturing was performed for the same amount of time. As a negative control, a solvent (ethanol) alone was added in the same manner and culturing was performed for the same period of time. Apoptosis detection was performed by Hoechst 33342 staining (at 1 mM with a reaction in 2 minutes at room temperature) after fixation (room temperature for 30 mins) of cells with a 1% glutaraldehyde solution. Observation was made from 5 arbitrary visual fields using a fluorescence microscope. Total cell and apoptotic cells were counted, and incident of apoptosis was calculated.
As regards the apoptosis-suppressing activity of PGE1 in nerve neurons, the manners other than TUNEL staining for detection of apoptosis were in accordance with ones in Experiment 1. The results are indicated in Table2.

[2] = system: differentiated PC12 cells; experiment: Suppression of apoptosis in differentiated PC12 cells after NGF withdrawal, Hoechst 33342 staining; type: cell-based, rat; settings: for Incidence of apoptosis (%): 24 hrs, NGF withdrawal, mean ± SEM
Experimental: as §1, §2
(3) A PGE1 ethanol solution was added (final concentration:
as §3
(4) The values obtained were expressed as means±SEM. As for statistical analysis, a student's t-test (hereafter noted as a t-test) was used for two groups and Dunnet's test was used after one-way layout dimensional analysis (one-way ANOVA) for numerous groups; critical values for both were considered to be a significant difference below 5%.

[3] = Hypotensive effect in anesthetized normal rats, mean blood pressure; type: in vivo, rat; parameters: Decrease in blood pressure: unit not given here; settings: 100 μg/kg body weight into caudal artery, mean blood pressure before and after, n 3
Experimental: 2) The hypotensive effect of the test drugs was examined. After anesthetizing normal rats (male, body weight of about 300 g) with intraperitoneal administration of Nembutal, the dorsal region was fixed. Next, a cannula was inserted in the carotid artery and blood pressure was measured through a transducer (Nihon Kohden Corporation); simultaneous recording was made in combination with a polygraph (Nihon Kohden Corporation). After dissolving the test drugs in ethanol, and diluted (x200) with saline. Administration was given in the caudal artery in a dose of 100 μg/kg body weight. The mean blood pressure (MBP) was measured. The decrease in blood pressure was calculated from the measured values before and after administration. The n was 3 per group.

## CCCCC[C@H](O)/C=C/[C@H]1[C@H](O)CC(=O)[C@@H]1CCCCCCC(=O)O [PGE1, prostaglandin E1]
NRK52E cells; NO donor GSNO
  Effect on apoptosis in kidney cells (in words): suppressed induction of apoptosis in kidney cells
NRK52E cells; Table 11, GSNO 1 mM, PGE1 1 μM, 24 hrs, n 5
  Incidence of apoptosis (%): 10 ± 2 %
NRK52E cells; Table 11, GSNO 1 mM, PGE1 10 μM, 24 hrs, n 5
  Incidence of apoptosis (%): 11 ± 3 %
NRK52E cells; Table 12, GSNO, PGE1 1 μM, n 3
  Incidence of apoptosis (%): 8 ± 2%
[1]; PGE1 0.1 μM and 1 μM
  Effect on cell apoptosis (in words): suppressed cell apoptosis
[1]; PGE1 0.1 μM
  TUNEL-positive cells (%): 13.80 ± 0.75%
[1]; PGE1 1 μM
  TUNEL-positive cells (%): 8.10 ± 1.57%
[2]; PGE1 0.01 μM
  Incidence of apoptosis (%): 21.3 ± 1.5%
[2]; PGE1 0.1 μM
  Incidence of apoptosis (%): 19.1 ± 8.1%
[2]; PGE1 1 μM
  Effect on cell apoptosis (in words): suppressed cell apoptosis
  Incidence of apoptosis (%): 17.1 ± 0.6%
[3]
  Decrease in blood pressure: −55

Reference: patent publication US20020127228A1, “PGT and apoptosis” (WELFIDE CORPORATION, priority 1998, published 2002)
